Where “and” joins values, the source holds several entries; their conditions need not be identical. Equal values may be shown once.

The source of these data is patent USRE37828E1, “Treatment and prevention of adhesions” (Hadasit Medical Research Services & Development Co., Ltd., priority 1997, dated 2002).

On the set-up of data set [1]: species or system rats. The conditions noted are these: rat, in vivo. As to the method:
(§1) In the second experiment, Halofuginone was administered in the diet of two groups of rats at a concentration of 5 mg/kg dry feed for 4 days before surgery, as a pretreatment. Two other groups of rats were fed a normal diet and served as control groups. One of the groups of rats fed Halofuginone and one control group the underwent surgery as described above. Halofuginone treatment was continued for 21 days following surgery, after which the rats were sacrificed and the number and severity of adhesions were determined, and body weight was measured.

For data set [2], the system named is alkaline phosphatase. Briefly: Alkaline phosphatase activity in tissue sections after abdominal surgery. It is filed as in vivo. The conditions noted are these: rats with surgery injected with Halofuginone, 21 days; FIG. 3C. As to the method:
For hybridization with the genetic probe, the sections were deparafinized in xylene, rehydrated through a graded series of ethanol solutions, rinsed in distilled water for 5 minutes and then incubated in 2×SSC [What is the recipe?] at 70° C. for 30 minutes. The sections were then rinsed in distilled water and treated with pronase, 0.125 mb/ml in 50 mM Tris-HCl, 5 mM EDTA, pH 7.5 for 10 minutes. After digestion, the slides were rinsed with distilled water, post-fixed in 10% formalin in PBS and blocked in 0.2% glycine. After blocking, the slides were rinsed in distilled water, rapidly dehydrated through graded ethanol solutions and air-dried for several hours. Before hybridization, the 1600 bp rat collagen α1(I) insert was cut out from the original plasmid, pUC18, and inserted into the pSafyre plasmid. The sections were then hybridized with this probe after digoxigenin-labelling. Alkaline phosphatase activity was detected in the sections as previously described [Knopov, V., et al., Bone, Vol 16 p. 329S-334S, 1995].
After 21 days, tissue samples were taken from all three groups of rats and histological sections were prepared as described in Example 1, and alkaline phosphatase activity was measured as described in Example 1.

Data set [3] concerns abdominal adhesions. Briefly: Post-surgical abdominal adhesions in rats, Halofuginone i.p. injection: number and severity of adhesions. The arrangement: key to Adhesion Score: 0=no adhesions; I=a thin, filmy, easily separated adhesion; II=several thin adhesions; III=a thick, broad adhesion; IV=several thick adhesions. It is filed as in vivo. As to the method:
(§2) The experiments were performed as follows. First, the abdomen of the rats was shaved and prepared with iodine and alcohol. The abdominal cavity was entered through a mid-line incision. The small intestine was scraped from the duodenum down to from about 9 to about 10 cm from the cecum, until capillary bleeding occurred. To avoid drying, Hartman's solution at about 37° C. was occasionally dripped on the intestine. After replacement of the intestine into the abdominal cavity, the abdomen was closed in two layers with continuous 00 chromic catgut suture. […] Res., Vol 17, p. 254-258, 1985]. After 21 days, the rats were sacrificed and the sutures were reopened to determine the level of adhesion formation and to take biopsies of the tissue.
The experiment was performed as follows. Abdominal adhesions were induced in two groups of rats as described above in Example 1. […] One group of the rats which underwent surgery received an i.p. injection of Halofuginone every day after the operation for 21 days. The rats were dosed according to body weight, with 1 ug of Halofuginone given per 25 g of body weight. […]
Two different tests were performed to assess the effect of Halofuginone on the number and severity of adhesions in rats which underwent surgery. […] At the end of 21 days, the rats were weighed and the number and severity of adhesions were determined according to a double-blind procedure. […]

Data set [4] concerns collagen type I. The data set is described as follows: Collagen α1(I) gene expression and collagen type I content in surgically insulted abdominal tissue (in situ hybridization, Sirius red). It is filed as in vivo. The conditions noted are these: rats with surgery, Halofuginone i.p. daily for 21 days. As to the method:
as §2
The tissue was sectioned so that histological studies could be performed. Briefly, the tissue samples were collected into phosphate-buffered saline (PBS) and fixed overnight in 4% paraformaldehyde in PBS at 4° C. Serial 5 μm sections were prepared after the samples had been dehydrated in graded ethanol solutions, cleared in chloroform and embedded in Paraplast. Differential staining of collagenous and non-collagenous proteins were performed with 0.1% Sirius red and 0.1% fast green as a counter-stain in picric acid. This procedure stains collagen red [Gascon-Barre, M., et al., J. Histochem. Cytochem., Vol 37, p. 377-381, 1989].
For hybridization with the genetic probe, the sections were deparafinized in xylene, rehydrated through a graded series of ethanol solutions, rinsed in distilled water for 5 minutes and then incubated in 2×SSC [What is the recipe?] at 70° C. for 30 minutes. The sections were then rinsed in distilled water and treated with pronase, 0.125 mb/ml in 50 mM Tris-HCl, 5 mM EDTA, pH 7.5 for 10 minutes. […] Alkaline phosphatase activity was detected in the sections as previously described [Knopov, V., et al., Bone, Vol 16 p. […]
After 21 days, tissue samples were taken for histological analysis as described above. Both collagen type I content of the tissue, and the level of collagen a(1)I gene expression were measured.

Data set [5] relates to skin wound. Briefly: Wound strength (bursting point of skin strips, Instron tensiometer). In kind it is in vivo, rats. The following applies: irradiated or non-irradiated animals, one or six injections of Halofuginone; FIG. 5. As to the method: Wound strength was assessed by preparing rats substantially as described above, except that one group of rats (not irradiated) only received one injection of Halofuginone after wounding. The strength of wounds was measured as follows. First, a square of skin which was approximately 20 mm long and 16 mm wide, and which included the main part of the wound, was excised from sacrificed rats. Next, the skin was cut, perpendicular to the wound, to yield 7 strips of skin, each of which was 2 mm wide. The skin strips were secured between paper reinforcement frames and loaded on an Instron tensiometer for stretching at a constant rate of 25 mm/min. The bursting point was then recorded.

Details of data set [6]: species or system rats. The conditions noted are these: rat, in vivo, ip. As to the method:
The experiment was performed as follows. Abdominal adhesions were induced in two groups of rats as described above in Example 1. […] One group of the rats which underwent surgery received an i.p. injection of Halofuginone every day after the operation for 21 days. The rats were dosed according to body weight, with 1 ug of Halofuginone given per 25 g of body weight. The other group of rats which underwent surgery received saline injections for 21 days.
Two different tests were performed to assess the effect of Halofuginone on the number and severity of adhesions in rats which underwent surgery. […] The experimental method was as follows. For the first test, three groups of rats were prepared as described above in Example 2. At the end of 21 days, the rats were weighed and the number and severity of adhesions were determined according to a double-blind procedure.

Data set [7] deals with collagen type I. The following applies: cited from earlier work.
In data set [8] the test system is abdominal adhesions. Briefly: Post-surgical abdominal adhesions in rats, Halofuginone in the diet: number and severity of adhesions. The arrangement: key to Adhesion: 0=no adhesions; I=a thin, filmy, easily separated adhesion; II=several thin adhesions; III=a thick, broad adhesion; IV=several thick adhesions. The following applies: for Adhesion: one rat per row. In kind it is in vivo. As to the method: as §2
In the double-blind procedure, adhesions were classified according to the following grading: 0=no adhesions; I=a thin, filmy, easily separated adhesion; II=several thin adhesions; III=a thick, broad adhesion and IV=several thick adhesions. Clearly, 0 is the least severe and IV is the most severe grade.
as §1

For data set [9], the system named is skin wound. Briefly: Wound healing and collagen content of skin wounds in irradiated and non-irradiated mice. The following applies: Halofuginone 1 μg/mouse i.p. every other day, 14 days. It is filed as in vivo, C3H mice. As to the method:
The experiment was conducted as follows. First C3H, defined-flora, pathogen-free female mice of 12-14 weeks of age were anesthetized with 60 mg/kg sodium phenobarbital. The mice were then shaved. One group of mice was then irradiated as follows. First, a flap of skin about 40 mm long and about 20 mm wide was pulled through a slit in the lead cover of an irradiation jig and secured with tape, so that only the flap of skin was exposed. This exposed skin was then irradiated by using a 175 kVp/20 mA orthovoltage X-ray source, with a 2 mm Cu filter at a dose rate of 1.0 Gy/min. A standard dose of 18 Gy was delivered.
All of the mice were then wounded by making a fill depth incision, about 25 mm long, in the skin along the midline of the lower back. Note that for the irradiated animals, the wound was made within the irradiated area, immediately following irradiation. For all mice, the incision was immediately closed by 3-4 metallic wound closure clips which were removed 2 days later.
After wounding, the mice were injected i.p every other day, either with 1 μg/mouse Halofuginone or with saline as a control. After 14 days, 2 days following the last injection, the mice were sacrificed and skin samples were collected into phosphate-buffered saline (PBS) and fixed in 4% paraformaldehyde in PBS at 4° C. […]

For data set [10], the system named is adhesions between tendon and its sheath. The conditions noted are these: chickens, local treatment through a catheter; cited from earlier work.
The subject of data set [11] is peritoneal adhesions. The conditions noted are these: rats, cited from earlier work.
The conditions of data set [12]: ascribed to effects on many collagen types and Fe++ ion-binding enzymes; cited from earlier work.
In data set [13] the test system is adhesions. The following applies: infertility surgery, gynecological surgeons; cited from earlier work.

Take `O=C(CC1NCCCC1O)Cn1cnc2cc(Br)c(Cl)cc2c1=O` (centres unmarked) [Halofuginone]: the weight gain entry in data set [1] is reported as “substantially similar”. In addition, the alkaline phosphatase activity result in data set [2] is “substantially no alkaline phosphatase activity”. Further, the “Adhesion Score” value in data set [3] (Group 2: rats with surgery, Halofuginone i.p. 1 ug per 25 g body weight daily for 21 days, one rat per row) was 0 (3×) and 0-1 and 2. For the same compound, the “number and severity of adhesions” value in [3] (Halofuginone-treated (i.p.) compared to non-treated rats after surgery) was “sharply reduced”. In addition, the “damage to the villi” value in [4] is reported as “much less damage”. The “collagen α1(I) gene expression” value in data set [4] (FIG. 2C) is “low levels”. Besides, the “collagen type I content” value in data set [4] (FIG. 2F) is “low level”. For the same compound, the wound strength result in [5] is on record as “did not reduce wound strength”. Also, the “reduction in weight gain” value in data set [6] is “more pronounced”. Further, in data set [7], the “inhibition of synthesis of collagen type I versus other collagens (α2(I), type II, type III, type X)” value is reported as “only inhibits the synthesis of collagen type I”. Moreover, the Adhesion in data set [8] (Group 2: rats with surgery, Halofuginone 5 mg/kg dry feed from 4 days before to 21 days after surgery) was 0-1 (3×) and 1 (3×) and 1-2 (2×) and 0 (2×); in data set [8] (Group 3: rats without surgery, Halofuginone 5 mg/kg dry feed), 0. The “number of rats with an adhesion” value in data set [8] (Halofuginone in diet, rats with surgery, compared to untreated operated rats) is “smaller number”. Besides, the “collagen content of the wound” value in data set [9] (irradiated (18 Gy) mouse, FIG. 4H) is reported as “significantly lowered”. Besides, the wound healing result in data set [9] (irradiated and non-irradiated mice) is “healed”. Moreover, in data set [10], the “prevention of adhesions between tendon and sheath” value is “effective”.

Regarding `Oc1cc(O)c2c(c1)O[C@H](c1ccc(O)c(O)c1)[C@@H](O)C2` [cianidanol], the “number of post-surgical adhesions” value in [11] is recorded as “decrease”. Further, the toxicity result in data set [12] is on record as “toxic”.

Take dextran: the adhesive prevention entry in [13] was “little success”.

In the case of povidone-iodine, in [11] (effect ascribed to an anti-microbial effect), the “reduction of the number of peritoneal adhesions after surgery” value was 35%.
